Assay results as given in PMC6394990, “Detailed characterization of the solution kinetics and thermodynamics of biotin, biocytin and HABA binding to avidin and streptavidin” (PLoS ONE, 2019).
“And” between values parts separate entries of the source, which are not always exact repeats. Identical values can stand only once. Like-named read-outs stand apart in the source and are kept apart here.

Key:
[1] = target: T1, avidin (AV) (Gallus gallus, UniProt P02701); experiment: Intrinsic lifetime, dynamic quantum yield and fraction of non-statically quenched molecules, AV complex; type: physicochemical
T1 construct: purchased Calbiochem (La Jolla, CA)
T1 sequence (P02701 25-152): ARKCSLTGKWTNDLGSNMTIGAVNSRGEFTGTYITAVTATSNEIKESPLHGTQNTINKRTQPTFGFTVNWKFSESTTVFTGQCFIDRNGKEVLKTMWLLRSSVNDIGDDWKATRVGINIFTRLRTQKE

[2] = target: T2, streptavidin (SAV) (Streptomyces avidinii, UniProt P22629); experiment: Intrinsic lifetime, dynamic quantum yield and fraction of non-statically quenched molecules, SAV complex; type: physicochemical
T2 construct: purchased Sigma Aldrich (St. Louis, MO)
T2 sequence (P22629 25-183): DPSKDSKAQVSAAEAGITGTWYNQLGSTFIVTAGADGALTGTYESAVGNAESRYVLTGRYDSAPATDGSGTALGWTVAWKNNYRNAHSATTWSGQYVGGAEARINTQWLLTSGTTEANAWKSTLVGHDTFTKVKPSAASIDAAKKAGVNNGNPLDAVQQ

[3] = target: T1, avidin (AV); experiment: Steady-state anisotropy (rss), AV complex; type: physicochemical
Procedure: The lifetimes (τ), steady state anisotropies (rss), time-resolved anisotropies (rt) and quantum yields (QY) of the complexes (at 20 ± 0.1°C and pH 8) were collected with a dye-labeled B7 probe concentration of 20–40 nM and 1040–2080 nM of either protein (AV or SAV) to ensure that only one binding site in the tetramer was filled with a ligand (AB1 filling model).
The rss measurements were collected using the Giblin-Parkhurst modification of the Wampler-Desa method as described previously. The fluorescence signal was detected in a model A-1010 Alphascan fluorimeter (Photon Technologies, Inc., Birmingham, NJ) equipped with an R928 PMT (Hamamatsu, Bridgewater, NJ). The excitation was provided by an Ar^+ ion laser (Coherent Innova 70–4 Argon, Santa Clara, CA) at 488 nm and 5–10 mW of power incident on the sample. A photoelastic modulator (PEM-80; HINDS International, Inc., Portland, OR) was placed between the laser source and the sample compartment with a retardation level of 1.22π, and the PEM stress axis orientated 45° with respect to the E vector of the laser beam. Two signals were acquired with the PEM alternating between “on” and “off” positions for 10 seconds and the data fitted to a least squared straight line to minimize noise. A minimum of six of these independent measurements were averaged to acquire the rss values. The fluorimeter G factor was determined using a film polarizer and analyzer with an excitation at 488 nm provided by a xenon arc lamp (model A1010, Photon Technologies Inc, Princeton, NJ). The dissociation reactions of dye-labeled B7 and protein complexes were monitored by fluorescence changes and were also collected in the fluorimeter described above.

[4] = target: T2, streptavidin (SAV); experiment: Stopped-flow association kinetics of dye-labeled biotin probes binding to streptavidin (F(t), rF(t); Arrhenius plots/global fitting); design: kcal/mol (from Arrhenius slope) / Eon for BFl: unit not given here; conditions: for half-time of association, rF¯(t): probe 20 nM
Procedure: These reactions were carried out in a buffered solution of 10 mM Tris-HCl, 100 mM KCl, 2.5 mM MgCl2 and 1 mM CaCl2 at pH 8 and only AV-BcO reactions included pH 9 and 10. […] The deglycosylation of AV (for comparative association reactions) was carried out using the provided standard protocol with endoglycosidase H [47], both with and without incubation of a denaturant solution (2% SDS and 1M 2-mercaptoethanol).
The reactions were collected with the SF instrument, described previously. […] The AC(t) and DC(t) data were baseline corrected before obtaining the signal ratio (Eq 4) as a function of time (ρt).
The constant AGain is the instrumental amplitude gain and was evaluated by solving ρ(t) using the known steady state anisotropy (rss) of the complexes which is equivalent to the r(t) at t = ∞; and H, obtained from the equivalent grating factor (G) for the filters and photo multiplier tubes in the SF. For the probes used in here G was 0.82 and H = (1-G)/(1+G) = 0.099. Knowing Again and H, the AC(t) and DC(t) signals can be solved for r(t) and F(t) (Eqs 4 and 5) and the normalized fluorescence, F¯(t) , and corrected fluorescence anisotropy, rF¯(t), were obtained when F¯(0) and rF¯(0) were scaled to 1 at t = 0.
The F¯(t) (Eq 6) is equivalent to (I||) + 2 (I⊥) and proportional to quantum yield (QYi), molar absorptivity (εi) and to the formation or disappearance of the emitting species Xi(t); and rF¯(t) including the steady state anisotropies (rss) of each fluorescent species (Eq 7).
The possible reaction models were discriminated by the squared residuals of the observed and calculated association traces of both fluorescence and anisotropy fluorescence signals, F¯(t) and rF¯(t) , respectively.

NC(CCCCNC(=O)CCCC[C@@H]1SC[C@@H]2NC(=O)N[C@@H]21)C(=O)NCCCCCNC(=O)c1ccc(-c2c3cc(F)c(=O)cc-3oc3cc(O)c(F)cc23)c(C(=O)O)c1 (stereo partly drawn) [BcO, Oregon green 488 Biocytin]
Dynamic Quantum Yield Φ ([1]; AV complex (AB1)): 0.88 ± 0.02 | Fraction of Non-Statically Quenched Dye 1-S ([1]; AV complex (AB1)): 0.70 ± 0.03 | Natural Lifetime τ° ([1]; AV complex (AB1)): 4.9 ± 0.1 | 1-S (4) = QY/F, fraction of non-statically quenched molecules ([1]; complex with AV): 0.7 and 0.70 ± 0.03 | F (3) = Sat/t° ([1]; complex with AV): 0.88 ± 0.02 | S ([1]; complex with AV): 0.3 | t° (2), intrinsic lifetime of the fluorescence dye ([1]; complex with AV, in ns): 4.9 ± 0.1 | Dynamic Quantum Yield Φ ([2]; SAV complex (AB1)): 0.83 ± 0.02 | Fraction of Non-Statically Quenched Dye 1-S ([2]; SAV complex (AB1)): 0.25 ± 0.02 | Natural Lifetime τ° ([2]; SAV complex (AB1)): 4.8 ± 0.1 | 1-S (4) = QY/F, fraction of non-statically quenched molecules ([2]; complex with SAV): 0.25 and 0.25 ± 0.02 | F (3) = Sat/t° ([2]; complex with SAV): 0.83 ± 0.02 | S ([2]; complex with SAV): 0.75 | t° (2), intrinsic lifetime of the fluorescence dye ([2]; complex with SAV): 4.8 ± 0.1 | Steady State Anisotropy rss ([3]; AV complex (AB1), 20°C): 0.187 ± 0.009 | AV-increment (%) ([3]; increase of rss against unbound): 713.0% | rss, + AV ([3]; steady-state anisotropy): 0.187 | kon binding to SAV, fold faster than binding to AV ([4]; 25°C): 3.2 X | rate at 4C (logarithmic value) ([4]; 277.15 K, follows from the SAV line (m2, b2), protein not printed in the line): 16.3 | halftime, F¯(t) ([4]; BcO 20 nM, SAV 200 nM, 10°C): 200.6 ms | halftime, rF¯(t) ([4]; BcO 20 nM, SAV 200 nM, 10°C): 201.4 ms | halftime, r¯(t) ([4]; BcO 20 nM, SAV 200 nM, 10°C): 332.7 ms | b of the line y = m2x+b2 ([4]; SAV 2, reacting with BcO): 27.125 | slope, m of the line y = m2x+b2 ([4]; SAV 2, reacting with BcO, x = 1/Temp): -2995.5 | ln(k) ([4]; SAV, 10 (283.15 K)): 16.7 | k(average) ([4]; SAV, 10 (283.15 K), k (full value)): 1.73E+07 | k(average) ([4]; SAV, 10 (283.15 K), k (scaled)): 17.3 | ln(k) ([4]; SAV, 15 (288.15 K)): 16.8 | k(average) ([4]; SAV, 15 (288.15 K), k (full value)): 2.00E+07 | k(average) ([4]; SAV, 15 (288.15 K), k (scaled)): 20 | ln(k) ([4]; SAV, 20 (293.15 K)): 17.0 | k(average) ([4]; SAV, 20 (293.15 K), k (full value)): 2.40E+07 | k(average) ([4]; SAV, 20 (293.15 K), k (scaled)): 24 | ln(k) ([4]; SAV, 25 (298.15 K)): 17.2 | k(average) ([4]; SAV, 25 (298.15 K), k (full value)): 3.03E+07 | k(average) ([4]; SAV, 25 (298.15 K), k (scaled)): 30.3 | Ea^Forward ([4]; SAV, pH 8): 6.2 ± 0.4 kcal/mol | ΔG^ǂ ([4]; SAV, pH 8, forward): 3.9 ± 0.4 kcal/mol | ΔS^ǂ ([4]; SAV, pH 8, forward): 7.8 ± 0.4 cal/°K·mol | kcal/mol (from Arrhenius slope) ([4]; SAV, ph8): -9583 | slope (Arrhenius linear fit) ([4]; SAV, ph8): -4823.1 | kon ([4]; pH 8, SAV, pH 8, 10°C, read-out: kon): 1.73e+07 ± 600000 M⁻¹ s⁻¹ | kon ([4]; pH 8, SAV, pH 8, 15°C, read-out: kon): 2e+07 ± 1.2e+06 M⁻¹ s⁻¹ | kon ([4]; pH 8, SAV, pH 8, 20°C, read-out: kon): 2.4e+07 ± 1.6e+06 M⁻¹ s⁻¹ | kon ([4]; pH 8, SAV, pH 8, 25°C, read-out: kon): 3.03e+07 ± 2e+06 M⁻¹ s⁻¹ | half-time of association, rF¯(t) ([4]; SAV 200 nM, pH 8, 10°C): 202 ms | half-time of association, rF¯(t) ([4]; SAV 200 nM, pH 8, 15°C): 111 ms | half-time of association, rF¯(t) ([4]; SAV 200 nM, pH 8, 20°C): 79 ms | kon ([4]; read-out: kon, mono-exponential fit of F¯(t), BcO 20 nM, SAV 200 nM, 10°C): 1.73e+07 M⁻¹ s⁻¹ | kon ([4]; read-out: kon, mono-exponential fit of rF¯(t), BcO 20 nM, SAV 200 nM, 10°C): 1.72e+07 M⁻¹ s⁻¹ | kon ([4]; read-out: kon, mono-exponential fit of uncorrected anisotropy r¯(t), BcO 20 nM, SAV 200 nM, 10°C, ill-fitted signal): 1.04e+07 M⁻¹ s⁻¹
